# Test results from EP3290412A1, “HIV-1 NUCLEOCAPSID INHIBITORS” (Università degli Studi di Siena, priority 2016, dated 2018).
# Tested on: HeLa cells
# Assay: HeLa Proliferation assay (CellTiter Glo)
# Type: cell-based
# Settings: 72 hours
# Description: HeLa cells (ATCC® CCL2™) in DMEM (Dulbecco Modified Eagle's Medium) without phenol red, Thermo, 11880, USA + 10% FBS + 1X PenStrep + 1X Gln or HUVEC cells (ATCC® CRL1730™) in EBM-2 (Endothelial Growth Basal Medium, Lonza, CC3156) + EGM-2 SingleQuotsTMSupplements and Growth Factors (Lonza, CC4176) + 1X Penicyllin-Streptomycin (PenStrep, ThermoFisher) + 1X Glutamine, are plated in a 384 well plate (Thermo, 4334-11, USA) to a density of 2000 cells per well and let recover for four hours at 37 °C, 5% CO2 in a humidified atmosphere. After the recovery, compounds are transferred to assay plates as per compound preparation method. Assay plates are then incubated at 37 °C, 5% CO2 in a humidified atmosphere for 72 hours. Cell viability is measured by the CellTiter Glo (Promega, G8080, USA) as per manufacturer instruction.
row,Structure (SMILES),Proliferation assay HELA TD50 [nM]
1,"C[C@@H](NC(=O)c1nc(-c2cc(C(=O)OCc3ccccc3)ccn2)nc(O)c1O)C1CCCCC1 [Compound 46, benzyl (R)-2-(4-((1-cyclohexylethyl)carbamoyl)-5,6-dihydroxypyrimidin-2-yl)isonicotinate]",6478.4
2,"O=C(NCC1CCC1)c1nc(-c2cc3ccccc3cn2)nc(O)c1O [Compound 47, N-(cyclobutylmethyl)-5,6-dihydroxy-2-(isoquinolin-3-yl)pyrimidine-4-carboxamide]",3332.6
3,"C[C@@H](NC(=O)c1nc(-c2cc(N)ccn2)nc(O)c1O)C1CCCCC1 [Compound 48, (R)-2-(4-aminopyridin-2-yl)-N-(1-cyclohexylethyl)-5,6-dihydroxypyrimidine-4-carboxamide]",1549.6
4,"C[C@@H](NC(=O)c1nc(-c2ccc(Cl)cn2)nc(O)c1O)C1CCCCC1 [Compound 49, (R)-2-(5-chloropyridin-2-yl)-N-(1-cyclohexylethyl)-5,6-dihydroxypyrimidine-4-carboxamide]",2099.9
5,"C[C@@H](NC(=O)c1nc(-c2ccc(C(=O)NCc3ccccc3)cn2)nc(O)c1O)C1CCCCC1 [Compound 50, (R)-2-(5-(benzylcarbamoyl)pyridin-2-yl)-N(1-cyclohexylethyl)-5,6-dihydroxypyrimidine-4-carboxamide]",2291.2
6,"C[C@@H](NC(=O)c1nc(-c2ccc(C(N)=O)cn2)nc(O)c1O)C1CCCCC1 [Compound 51, (R)-2-(5-carbamoylpyridin-2-yl)-N-(1-cyclohexylethyl)-5,6-dihydroxypyrimidine-4-carboxamide]",26976
7,"C[C@H](NC(=O)c1nc(-c2cc(C(F)(F)F)ccn2)nc(O)c1O)C1CCCCC1 [Compound 52, (S)-N-(1-cyclohexylethyl)-5,6-dihydroxy-2-(4-(trifluoromethyl)pyridin-2-yl)pyrimidine-4-carboxamide]",10186
8,"C[C@@H](NC(=O)c1nc(-c2ccc(CNCc3ccccc3)cn2)nc(O)c1O)C1CCCCC1 [Compound 53, (R)-2-(5-((benzylamino)methyl)pyridin-2-yl)-N-(1-cyclohexylethyl)-5,6-dihydroxypyrimidine-4-carboxamide]",2876.3
9,"C[C@@H](NC(=O)c1nc(-c2cccc(C(=O)OCc3ccccc3)n2)nc(O)c1O)C1CCCCC1 [Compound 54, benzyl (R)-6-(4-((1-cyclohexylethyl)carbamoyl)-5,6-dihydroxypyrimidin-2-yl)picolinate]",24972
10,"C[C@@H](NC(=O)c1nc(-c2ccc(CO)cn2)nc(O)c1O)C1CCCCC1 [Compound 55, (R)-N-(1-cyclohexylethyl)-5,6-dihydroxy-2-(5-(hydroxymethyl)pyridin-2-yl)pyrimidine-4-carboxamide]",1466.5
11,"CC1CCC(NC(=O)c2nc(-c3ccccn3)nc(O)c2O)CC1 (stereo not shown) [Compound 56, 5,6-dihydroxy-N-(4-methylcyclohexyl)-2-(pyridin-2-yl)pyrimidine-4-carboxamide]",3203.9
12,"CC1CCCC(NC(=O)c2nc(-c3ccccn3)nc(O)c2O)C1 (stereo not shown) [Compound 57, 5,6-dihydroxy-N-(3-methylcyclohexyl)-2-(pyridin-2-yl)pyrimidine-4-carboxamide]",1909.4
13,"CC1(C)CCC(NC(=O)c2nc(-c3ccccn3)nc(O)c2O)CC1 [Compound 58, N-(4,4-dimethylcyclohexyl)-5,6-dihydroxy-2-(pyridin-2-yl)pyrimidine-4-carboxamide]",2045.2
14,"CC1CCCCC1NC(=O)c1nc(-c2ccccn2)nc(O)c1O (stereo not shown) [Compound 59, 5,6-dihydroxy-N-(2-methylcyclohexyl)-2-(pyridin-2-yl)pyrimidine-4-carboxamide]",694.6
15,"C[C@@H](NC(=O)c1nc(-c2ccc(NC(=O)OC(C)(C)C)cn2)nc(O)c1O)C1CCCCC1 [Compound 61, tert-butyl (R)-(6-(4-((1-cyclohexylethyl)carbamoyl)-5,6-dihydroxypyrimidin-2-yl)pyridin-3-yl)carbamate]",2035.8
16,"CC(=O)Nc1ccc(-c2nc(O)c(O)c(C(=O)N[C@H](C)C3CCCCC3)n2)nc1 [Compound 62, (R)-2-(5-acetamidopyridin-2-yl)-N-(1-cyclohexylethyl)-5,6-dihydroxypyrimidine-4-carboxamide]",4551.9
17,"CC(C)(CNC(=O)c1nc(-c2ccccn2)nc(O)c1O)C1CCCC1 [Compound 63, N-(2-cyclopentyl-2-methylpropyl)-5,6-dihydroxy-2-(pyridin-2-yl)pyrimidine-4-carboxamide]",398.6

row,Structure (SMILES),Proliferation assay HELA TD50 [nM]
1,"C[C@H](CC1CCCCC1)NC(=O)c1nc(-c2ccccn2)nc(O)c1O [Compound 64, (R)-N-(1-cyclohexylpropan-2-yl)-5,6-dihydroxy-2-(pyridin-2-yl)pyrimidine-4-carboxamide]",471.7
2,"CC(NC(=O)c1nc(-c2ccccn2)nc(O)c1O)C1CCCC1 (stereo not shown) [Compound 65, N-(1-cyclopentylethyl)-5,6-dihydroxy-2-(pyridin-2-yl)pyrimidine-4-carboxamide]",883.9
3,"COc1ccc2nc(-c3nc(O)c(O)c(C(=O)N[C@H](C)C4CCCCC4)n3)ccc2c1 [Compound 66, (R)-N-(1-cyclohexylethyl)-5,6-dihydroxy-2-(6-methoxyquinolin-2-yl)pyrimidine-4-carboxamide]",3660
4,"Cc1ccc(-c2nc(O)c(O)c(C(=O)N[C@H](C)C3CCCCC3)n2)nc1C [Compound 67, (R)-N-(1-cyclohexylethyl)-2-(,5,6-dimethylpyridin-2-yl)-5,6-dihydroxypyrimidine-4-carboxamide]",3757.7
5,"COc1cc(-c2nc(O)c(O)c(C(=O)N[C@H](C)C3CCCCC3)n2)nc2ccccc12 [Compound 68, N-[(1R)-1-cyclohexylethyl]-2-(4-methoxyquinolin-2-yl)-5,6-bis(oxidanyl)pyrimidine-4-carboxamide]",5700.7
6,"COc1ccnc(-c2nc(O)c(O)c(C(=O)N[C@@H](C)C3CCCCC3)n2)c1 [Compound 69, N-[(1S)-1-cyclohexylethyl]-2-(4-methoxypyridin-2-yl)-5,6-bis(oxidanyl)pyrimidine-4-carboxamide]",3899.9
7,"C[C@@H](NC(=O)c1nc(-c2cc(N3CCN(C)CC3)ccn2)nc(O)c1O)C1CCCCC1 [Compound 76, (R)-N-(1-cyclohexylethyl)-5,6-dihydroxy-2-(4-(4-methylpiperazin-1-yl)pyridin-2-yl)pyrimidine-4-carboxamide]",3683.1
8,"COc1ccnc(-c2nc(O)c(O)c(C(=O)NC3CCC(C)(C)CC3)n2)c1 [Compound 77, N-(4,4-dimethylcyclohexyl)-5,6-dihydroxy-2-(4-methoxypyridin-2-yl)pyrimidine-4-carboxamide]",2257.8
9,"C[C@H](NC(=O)c1nc(-c2cc(Cl)ccn2)nc(O)c1O)C1CCCCC1 [Compound 78, (S)-2-(4-chloropyridin-2-yl)-N-(1-cyclohexylethyl)-5,6-dihydroxypyrimidine-4-carboxamide]",2357.6
10,"Cc1ccnc(-c2nc(O)c(O)c(C(=O)N[C@@H](C)C3CCCCC3)n2)c1 [Compound 79, (S)-N-(1-cyclohexylethyl)-5,6-dihydroxy-2-(4-methylpyridin-2-yl)pyrimidine-4-carboxamide]",1723.3
11,"C[C@H](NC(=O)c1nc(-c2nccc3ccccc23)nc(O)c1O)C1CCCCC1 [Compound 80, (S)-N-(1-cyclohexylethyl)-5,6-dihydroxy-2-(isoquinolin-1-yl)pyrimidine-4-carboxamide]",1611.2
12,"C[C@H](NC(=O)c1nc(-c2ccc(N)cn2)nc(O)c1O)C1CCCCC1 [Compound 81, (S)-2-(5-aminopyridin-2-yl)-N-(1-cyclohexylethyl)-5,6-dihydroxypyrimidine-4-carboxamide]",542.5
13,"C[C@H](NC(=O)c1nc(-c2nccc3[nH]ccc23)nc(O)c1O)C1CCCCC1 [Compound 86, (S)-N-(1-cyclohexylethyl)-5,6-dihydroxy-2-(1H-pyrrolo[3,2-c]pyridin-4-yl)pyrimidine-4-carboxamide]",1414.7
14,"CC(NC(=O)c1nc(-c2cc(Cl)ccn2)nc(O)c1O)C1CCC(F)(F)CC1 (stereo not shown) [Compound 87, 2-(4-chloropyridin-2-yl)-N-(1-(4,4-difluorocyclohexyl)ethyl)-5,6-dihydroxypyrimidine-4-carboxamide]",6158
15,"C[C@@H](NC(=O)c1nc(-c2cc(CCN)ccn2)nc(O)c1O)C1CCCCC1 [Compound 88, (R)-2-(4-(2-aminoethyl)pyridin-2-yl)-N-(1-cyclohexylethyl)-5,6-dihydroxypyrimidine-4-carboxamide]",7133.8
16,"CCNS(=O)(=O)c1ccc(-c2nc(O)c(O)c(C(=O)N[C@H](C)C3CCCCC3)n2)nc1 [Compound 89, (R)-N-(1-cyclohexylethyl)-2-(5-(N-ethylsulfamoyl)pyridin-2-yl)-5,6-dihydroxypyrimidine-4-carboxamide]",12629
17,"C[C@@H](NC(=O)c1nc(-c2cc(CCNCc3cccn3C)ccn2)nc(O)c1O)C1CCCCC1 [Compound 91, (R)-N-(1-cyclohexylethyl)-5,6-dihydroxy-2-(4-(2-(((1-methyl-1H-pyrrol-2-yl)methyl)amino)ethyl)pyridin-2-yl)pyrimidine-4-carboxamide]",1160.4
